“Also recorded” adds a separate entry of the source. Read-outs that look alike come from different tables or passages of the source.

Data set [1] relates to tobacco mosaic virus (TMV). As to the kind of experiment: TMV replication in intact Nicotiana glutinosa plants (local lesions). The format is in vivo. The conditions noted are these: for Percent TMV Inhibition: 2 × 10^-5 M in infecting solution, 48 hr after infection, half-leaves of N. glutinosa. Here is the method: Carborundum (400 mesh) was sprinkled lightly onto leaves. Solutions containing 0.2 micrograms per ml of TMV and 2×10^-5 M 2',5'-phosphorothioate oligoadenylate in phosphate buffer were applied onto half-leaves of N. glutinosa with either a gloved finger or with a pipettor. The remaining half-leaves were controls (inoculated with the buffer solution containing TMV, but no active compound). The infection was allowed to proceed 48 h under continuous illumination of about 1500 Lx at which time local virus lesions appeared. Inhibition of TMV replication was calculated as the percent of local lesions produced in 2',5'-phosphorothioate oligoadenylate-treated half-leaves compared to control half-leaves.
^4 Inhibition of TMV replication was detected 48 hr after infection
and was calculated as the percent of local lesions produced in treated
halfleaves of N. glutinosa compared to control halfleaves.

The subject of data set [2] is RNase L. The experiment in a line: Core-cellulose assay: activation of partially-purified RNase L to hydrolyze poly(U)-3'-[32P]pCp. The format is biochemical, mouse. The conditions noted are these: poly(U)-3'-[32P]pCp substrate. As to the method: FIG. 1B represents the results of a core-cellulose assay indicating the ability of the 2',5'-phosphorothioate adenylate trimer cores and 5'-monophosphates to activate partially-purified RNase L from L929 cell extracts to hydrolyze the substrate polY(U)-3'-[^32 P]pCp. Activation of RNase L was determined by conversion of poly (U )-3'-[^32 P]pCp to acid-soluble fragments. 100% represents 30,000 cpm of labelled poly(U)-3'-[^32 P]pCp bound to glass fiber filters. The curves are labelled in the same manner as FIG. 1A.
The 2',5'-phosphorothioate cores, with one exception, have the correct stereoconfiguration to activate RNase L. The activation of partially-purified RNase L by the 2',5'-phosphorothioates was measured according to the core-cellulose assay of Silverman, Analyt. Biochem. 144:450-460 (1985) which relies on hydrolysis of the substrate poly(U)-3-[^32 P]pCp. […] (FIG. 1B) The order of activation of the trimer cores and the corresponding 5'-monophosphates is: RpRp>SpRp>RpSp (FIG. 1B).

Data set [3] has as its system RNase L. As to the kind of experiment: rRNA cleavage assay using L929 cell extracts (28S and 18S rRNA). The note with it: L929 cell extracts; '>' = no activation at that concentration. It is filed as biochemical, mouse. As to the method:
Activation of RNase L by 2',5'-phosphorothioate adenylate trimer cores and their 5'-monophosphates was also measured in an rRNA cleavage assay using L929 cell extracts.
The corresponding 5'-monophosphates pARp ARp A, pASp ARp A (at 10^-8 M) and pARp ASp A (at 10^-7 M) activated RNase L to cleave 28S and 18S rRNA.

The next data set deals with phosphodiesterases. The experiment in a line: Metabolic stability, general statements. It is filed as in vitro ADME.
Data set [4] has as its system HIV reverse transcriptase. The experiment in a line: HIV reverse transcriptase activity. The format is biochemical, HIV (HTLV-IIIB). The note with it: for Percent Inhibition of HIV reverse transcriptase / Reverse Transcriptase Activity: 200 uM; for Reverse Transcriptase Activity: control 187×10^3 cpm (reactions 1-4), 273×10^3 cpm (reactions 5-13). Here is the method:
HIV reverse transcriptase (RNA-dependent DNA nucleotidyl-transferase) activity was assayed by a modification of the procedure of Poiesz et al. (Poiesz, B. J., Ruscetti , F. W., Gazdar, A. F., Bunn, P. S., Minna, J. D., and Gallo, R. C., Proc. Natl. Acad. Sci. U.S.A. 77: 7415-7419 (1980)).
Cultured H-9 cells are grown at 10^6 cells/ml in RPMI-1640 medium and 20% heat-inactivated fetal calf serum. Cell suspensions are centrifuged (1000×g, 10 min.) and the supernatant is removed. Virus particles are precipitated from this cell-free supernatant to which 0.3 ml of 4M NaCl and 3.6 ml of 30% (weight/volume) polyethylene glycol are added. The suspension is placed on ice for 2 hr following centrifugation at 15,000×g for 30 min at 0° C. The precipitate is resuspended in 200 microliters of 50% glycerol (vol./vol.)/25 mM Tris-HCl (pH 7.5)/5 mM dithiothreitol/50 mM KCl/0.025% Triton X-100. Virus particles are lysed by the addition of 100 microliters of 0.9% Triton X-100/1.5M KCl. Reverse transcriptase assays are performed at 37° C. for 1 hr with 10 microliters of the lysed virus solution in a final reaction volume of 100 microliters containing: 40 mM Tris-HCl (pH 7.8), 4 mM dithiothreitol, 45 mM KCl and 2.5 micrograms of template primer [poly(A)-dT15, 0.5 micrograms/microliter] (with a signal Mg^++ concentration of 10 mM). At this time, 10 microliters of the 2',5'-phosphorothioate oligoadenylate is added to a final concentration of 200 micromolar. Reaction mixtures also contain 4 micromoles of [^3 H]dTTP. Reactions are stopped by the addition of cold 5% trichloroacetic acid and filtered through nitrocellulose discs. The discs are dried and the radioactivity bound to the discs is determined. Reverse transcriptase activity is expressed as the percent relative to a control.
The compounds were assayed in the above manner in two sets, each set having a separate set of controls. The compounds of reactions 1-4 were assayed against control #1, which was 187×10^3 cpm. The compounds used in reactions 5-13 were assayed against control #2, which was 273×10^3 cpm.

In data set [5] the test system is RNase L. The experiment in a line: Activation or inhibition of RNase L, general statements without assay named. The format is biochemical.
The subject of data set [6] is 2'-phosphodiesterase (2'-PDE), L cell extract. The experiment in a line: Hydrolysis by 2'-phosphodiesterase in L cell extract. The format is in vitro ADME. The source says: The four 2,5-phosphorothioate adenylate trimer cores were further characterized by hydrolysis with the enzyme 2'-phosphodiesterase ("2'-PDE"), an exoribonuclease found in L cell extract The enzyme cleaves from the 2'/3'-terminus.
(§1) The metabolic stability of the 2,5'-phosphorothioate dimer and trimer cores is markedly greater than authentic 2-5A. The rate of hydrolysis of the trimer cores by the 3'-exonuclease SVPD is, in order of decreasing stability: ASp ARp A>ARp ARp A>>>A3. […] The 3'->'5'direction of stepwise cleavage by SVPD is blocked by an Sp configuration, preventing cleavage of the upstream adjacent phosphorothioate linkage. […] With both SVPD and 2'-PDE, the dimer cores (either ARp A or ASp A) accumulate following hydrolysis of the ARp ARp A, ASp ARp A and ARp ASp A trimer cores. Hydrolysis of the 2-5A molecule by SVPD and 2'-PDE proceeds from the 2'/3'-terminus. Therefore, introduction of the phosphorothioate group into the trimer core results in the accumulation of the ARp A or ASp A dimer cores from the 5'-terminus and the accumulation of AMPS from the 2'/3'-terminus (Table 3). With authentic A3, there is no detectable accumulation of A2 following hydrolysis by SVPD or 2'-PDE.

A further data set deals with SVPD. The experiment in a line: Hydrolysis by SVPD (snake venom phosphodiesterase). It is filed as in vitro ADME. As to the method:
It is known that the enzyme SVPD preferentially cleaves Rp-3',5'- or 2',5'-phosphorothioate linkages from the 2'/3'-terminus. Nelson et al, J. Org. Chem. 49:2314-2317 (1984); Eppstein et al, J. Biol. Chem. 261:5999-6003 (1986); Lee et al, Biochemistry 24:551-555 (1985). SVPD hydrolysis of the chemically synthesized dimer core ARp A yielded adenosine and AMPS in a molar ratio of 1:1, respectively; the half-life was 3 hours (Table 3).
as §1

The test system of another data set is serum phosphodiesterases. The experiment in a line: Hydrolysis by serum phosphodiesterases.

With “5'-O-Phosphoryl-(Rp)-thioadenylyl-(2'-5')-(Rp)-thioadenylyl-(2'-5')-adenosine [pARp ARp A]”, the “Percent TMV Inhibition” value in [1] amounted to 75%. For the same substance, the “activation of RNase L, core-cellulose assay (result in words)” value with RNase L [2] was “most efficient activator of RNase L”. The “concentration at which RNase L was activated to cleave 28S and 18S rRNA” value (from here on “concentration”) in the data set on RNase L [3] is listed as 10^-8 M. For the same substance, the “metabolic stability (result in words)” value in the data set with phosphodiesterases is “metabolically unstable and is readily attacked by phosphodiesterases”. In addition, in data set [4], the “Percent Inhibition of HIV reverse transcriptase” value (from here on “Percent Inhibition”) is given as 25% and the “Reverse Transcriptase Activity” value was 144 10^3 cpm.
Take “5'-O-Phosphoryl-(Sp)-thioadenylyl-(2'-5')-(Sp)-thioadenylyl-(2'-5')-adenosine [pASp ASp A]”: the “Percent TMV Inhibition” value in data set [1] worked out at 40%. The “inhibition of TMV replication (result in words)” value in data set [1] (in vivo) was “inhibit HIV reverse transcriptase activity and tobacco mosaic virus replication”. Further, the “concentration” value in the data set with RNase L [3] was > 10^-5 M. Besides, in the data set on phosphodiesterases, the “metabolic stability (result in words)” value is “metabolically stable to specific and non-specific phosphodiesterases”. Further, in data set [4], the “inhibition of HIV reverse transcriptase (result in words)” value was “inhibit HIV reverse transcriptase activity and tobacco mosaic virus replication”; the “Percent Inhibition” value is 15%; the “Reverse Transcriptase Activity” value was 232 10^3 cpm. In the data set on RNase L [5], the “effect on RNase L activation (result in words)” value was “selectively inhibits activation of RNase L at physiological concentrations; also recorded: metabolically stable inhibitor of RNase L; also recorded: most effective inhibitor of RNase L reported to date”.
Regarding “(Rp)-P-Thioadenylyl-(2'-5')-(Sp)-P-thiodenylyl-(2'-5')-adenosine [Compound 10A]”, the “half life, hydrolysis by L cell extract” value in data set [6] is 20 days. For the same substance, the “hydrolysis by SVPD (result in words)” value in the data set on SVPD is recorded as “not substrates for SVPD; also recorded: not cleaved”. In addition, in the data set with SVPD (listed as ARp ASp A), the “hydrolysis by SVPD (result in words)” value is recorded as “not substrates of SVPD”. In [1], the “Percent TMV Inhibition” value came to 70%. Also, the “concentration” value in the data set with RNase L [3] was > 10^-4 M. Further, in the data set with serum phosphodiesterases, the “hydrolysis by serum phosphodiesterases (result in words)” value was “not cleaved”. The “metabolic stability (result in words)” value in the data set with phosphodiesterases is recorded as “metabolicly stable”. Also, in data set [4], the “Percent Inhibition” value stood at 10% and the “Reverse Transcriptase Activity” value was 247 10^3 cpm. In addition, the “effect on RNase L activation (result in words)” value in the data set with RNase L [5] is listed as “activates RNase L”.

Source of the values: US5556840A, “2',5'-phosphorothioate oligoadenylates as anitiviral agents” (Temple University - Of The Commonwealth System of Higher …, priority 1994, dated 1996).
